US8227616B2, “Cyanopyridine antibacterial agents and methods of use thereof” (Wisconsin Alumni Research Foundation, priority 2006, dated 2012)
In brackets after ≈: the same amount, converted by molar mass.

Assays:
S. aureus ATCC 10390 [1] = assay: Agar overlay TTC assay; assay type: cell-based, Staphylococcus aureus; settings: methicillin susceptibility disk 10 μg, agar overlay TTC assay, 18 h
Text: To take advantage of the spatially-addressed nature of the macroarray format, an agar overlay assay was employed that utilizes TTC (triphenyl tetrazolium chloride) as a visualization agent (FIG. 2[…].; Lu, A. T.; Solas, D. W.; Gore, […].; Coffin, […].; Wang, […].; Look, G. C.; Campbell, […]. Antimicrob. Agents Chemother. 1998, 1447-1453. Unfortunately, during macroarray synthesis the planarity of the support is not fully maintained, and small wrinkles develop in this particular assay. This problem was solved by using an adaptation of the common Western Blot technique to copy the macroarray members from the support to fresh wrinkle-free sheets while maintaining the spatially-addressed nature. This transfer can be completed in 90 seconds and four copies can be made at a time, however to date, it is applicable only for smaller macroarrays (6 cm×6 cm, 16 spots). The full macroarray was easily divided into these dimensions. The copies allowed for replicates to be made, and the original, which cannot be used in the assay, is used to validate the compounds by LCMS. As an added feature, the sensitivity of the assay was tuned by simply changing the amount of agar applied to the array. The copies generated in the assay can also be easily used to screened against multiple organisms. […] This assay format also took advantage of the spatially addressed nature of the arrays (FIG. 2C). […]

[2] = system: B. subtilis subsp. spizizenii ATCC 6633; assay: MIC determination, species selectivity; assay type: cell-based; settings: Bacillus subtilis, ATCC6633; authentic sample, only trans isomers of chalcones; error reflects step size
Description: (§1) Each compound from Table 3 was tested for inhibitory activity at 2.5, 5, 7.5, 10, 15, 20, 25, and 30 μM in the susceptible overlaid strains: B. subtilis ATCC 6633, S. epidermidis ATCC 12228, and K. pneumoniae ATCC 4352. MIC assays were run in quadruplicate as described above (with shaking).

[3] = system: S. epidermidis ATCC 12228; assay: MIC determination, species selectivity; assay type: cell-based; settings: Staphylococcus epidermidis, ATCC12228; authentic sample, only trans isomers of chalcones; error reflects step size
Description: as §1

K. pneumoniae ATCC 4352 = assay: MIC determination, species selectivity; assay type: cell-based; settings: Klebsiella pneumoniae, ATCC4352; authentic sample, only trans isomers of chalcones; error reflects step size
Description: as §1

S. aureus ATCC 10390 [4] = assay: MIC determination with authentic compounds resynthesized in solution; assay type: cell-based, Staphylococcus aureus; settings: Staphylococcus aureus, ATCC10390
Description: (§2) For estimated MIC determination, DMSO was added to the dried compound residue obtained from a single spot to afford ca. 100 μL of a 2 mM stock solution. Aliquots (5 μL) of these solutions were added to a 96-well plate, followed by 195 μL of diluted S. aureus 10390 (10^6 CFUs/mL) to yield ca. 50 μM final concentrations. The plates were swirled for 1 h to ensure compound dissolution, incubated for 12 h at 37° C., and the absorbance at 595 nm was recorded using a plate reader. […] Actual MIC values were determined for lead compounds resynthesized in solution using an analogous procedure with solutions of known concentration (see).
(§3) Dose response growth inhibition curves were determined for each active compound (resynthesized in solution) against S. aureus 10390 (SA) and methicillin-resistant S. aureus 33591 (MRSA). […] MIC assays were performed in quadruplicate.

S. aureus ATCC 10390 [5] = assay: Estimated MIC, solution-phase microdilution absorbance assay with crude macroarray spot stock solutions; assay type: cell-based, Staphylococcus aureus; settings: for MIC: Staphylococcus aureus, ATCC10390, 12 h
Description: Spots from a new 69 member chalcone macroarray as well as the three heterocyclic macroarrays prepared earlier were punched out, cleaved, and eluted with acetonitrile. The resulting solutions were concentrated to a residue that was taken up in DMSO to form 2 mM stock solutions.
From the stock solutions, microdilution assays in a 96 well plate starting at 50 μM were performed in quadruplicate. Each well contained 5 μL of the stock solution as well as 195 μL of a S. aureus culture. The turbidity of each well was measured after incubating 12 hours using a standard plate reader. Active compounds can be further diluted and the assay repeated.
To acquire more quantitative antibacterial activity data about our compounds and verify our on-support assay results, we performed solution-phase absorbance assays that provided estimates of the minimum inhibitory concentration (MIC) of each macroarray member against S. aureus. Stock solutions (ca. 2 mM) were generated by cleaving and eluting 198 individual compounds from chalcone (3) and heterocyclic macroarrays (5, 7, and 8). […] The good overall purities of the crude macroarray compounds allowed for reasonable estimations of MICs.
as §2
Preparation of spot samples and controls. An aliquot of DMSO (ca. 100 μL depending on the loading of the parent hydroxyacetophenone) was added to the dried compound residue obtained after TFA cleavage and elution from a single spot. This afforded a 2.0 mM “spot stock” solution for each spot. A small aliquot of each “spot stock” solution was saved for subsequent LC-MS analysis.
For estimated MIC screens, 5.0 μL portions of the “spot stock” solutions were added to the appropriate wells in a sterile, polystyrene 96-well plate to yield ca. 50 μM solutions (dependent on the initial loading of hydroxyacetopheneone and compound purity). To the positive and negative control wells, 5.0 μL of DMSO were added (positive controls contained bacteria but no compound, while negative controls had neither compound nor bacteria). All estimated MIC assays were performed in quadruplicate. Note: the MIC value is defined as the lowest concentration where no bacterial growth occurs.
Representative estimated MIC assay procedure. This assay procedure is based in part on the method reported by Strøm et al.^xiii A 400 μL portion of overnight S. aureus 10390 culture was diluted with 100 mL of sterile LB broth to give ca. 10^6 CFUs per mL. Aliquots (195 μL) of this solution were added to all of the wells in a sterile 96-well plate (except for the negative control wells; 195 μL of sterile LB broth were added to these wells). The plates were placed on an orbital shaker table and gently swirled for 1 h to ensure compound dissolution, and then incubated (without shaking) for 12 h at 37° C. The absorbance at 595 nm was recorded using a plate reader.
The original “spot stock” solutions of these compounds were diluted with DMSO to give ca. 25 and 13 μM final concentrations and tested for inhibitory activities using the procedure described above.

K. pneumoniae = assay: Agar overlay TTC assay, compound overlays; assay type: cell-based, Klebsiella pneumoniae; settings: 30 nanomole aliquots of purified compound on filter paper
[6] = system: Methicillin-resistant S. aureus ATCC 33591 (MRSA); assay: MIC determination with authentic compounds resynthesized in solution; assay type: cell-based; settings: Staphylococcus aureus; Table 3; authentic sample, only trans isomers of chalcones; error reflects step size in the serial dilutions
Description: as §2, §3

S. aureus ATCC 10390 [7] = assay: Kirby-Bauer disk diffusion assay on compound spots from cleaved macroarray; assay type: cell-based, Staphylococcus aureus; settings: loadings 30 μg/spot, 18 h incubation
Description: While the heterocyclic libraries were being synthesized, the chalcone macroarrays were analyzed using various direct assay techniques such as the Kirby-Bauer disk diffusion assay (FIG. 2E). Bauer, A. W.; Kirby, […].; Turck, M. Technical Bulletin of the Registry of Medical Technologists 1966, 36, 49-52. For this assay, the macroarray members are punched out from the membrane, cleaved from the support with TFA vapor, neutralized with ammonia vapor, and then placed on an agar bed inoculated with S. aureus. After incubating overnight, different diameters of zones of inhibition are measured as a factor of potency as well as solubility in the medium. Ammonia vapor neutralization was key in the disk diffusion assay, otherwise residual TFA vapor created a false positive signature. However, in this method, macroarrays have to be made in triplicate one for a replicate and one for compound characterization. We first evaluated test chalcone macroarrays (3) in antibacterial assays against S. aureus. Because the macroarrays were prepared on cellulose filter paper, we had convenient access to the compounds in disk form for standard disk diffusion assays. Compound spots were punched out of the macroarrays, subjected to vapor phase cleavage with acid (TFA), and neutralized (NH3) to afford disks containing ca. 30 μg of adsorbed compound [8]. These disks were manually placed on lawns of S. aureus, and zones of inhibition were measured after an 18 h incubation period. […] However, this antibacterial assay format had drawbacks: (1) the entire sample of compound was consumed during the assay, and thus replicate arrays needed to be synthesized to confirm activity, and (2) manipulating large numbers of compound disks was relatively labor intensive. Compound spots were cleaved with TFA and neutralized with NH3 as described herein. […] Compound spots were placed onto the agar, the plate was incubated at 37° C. for 18 h, and the diameters of the zones of inhibition were measured. […] Compound spots were subjected to the TFA cleavage conditions described above. The spots were next subjected to NH3 vapor to neutralize any remaining TFA. […] Vials containing the spots (or intact macroarrays) were placed inside a small evaporating dish, and this was placed into the NH4OH solution. The Pyrex dish was covered, and NH3 vapor was allowed to slowly diffuse into the vials. After 1 h, the vials were removed from the NH3 chamber, and the spots were allowed to stand open in a fume hood for at least 15 min to vent prior to analysis in the following assays. This afforded dry, paper disks containing adsorbed compound. […] The plates were removed, and the diameters of the zones of inhibition were measured in mm using a ruler (see FIG. 1A).

[8] = Table 2, authentic sample synthesized according to standard techniques, read-out: observed MIC
[9] = Table 3, authentic sample, only trans isomers of chalcones, error reflects step size in the serial dilutions, read-out: S. aureus MIC
[10] = Table 2, serial dilution of stock solutions obtained by SPOT-synthesis, read-out: estimated MIC range
[11] = Table 3, serial dilution of spot stock solutions of crude macroarray compounds, read-out: S. aureus Estimated MIC range

Work on `COc1cccc(OC)c1C(=O)N[C@@H]1C(=O)N2[C@@H]1SC(C)(C)[C@@H]2C(=O)O` [methicillin, reference compound] yielded a Zone of inhibition (S. aureus ATCC 10390 [1]) of 39 mm.
Work on `O=C(/C=C/c1cccc(Cl)c1Cl)c1cccc(O)c1` [Compound 4Bl, 2,3-dichloro-3′-hydroxychalcone] yielded an MIC [2] of 22.5 ± 2.5 µM (≈ 6.6 µg/mL), an MIC [3] of 12.5 ± 2.5 µM (≈ 3.66 µg/mL) and an MIC (K. pneumoniae ATCC 4352) greater than 250 µM. The MIC (S. aureus ATCC 10390 [4]; [8]) was 13.8 ± 1.2 µM (≈ 4.05 µg/mL), the MIC (S. aureus ATCC 10390 [4]; [9]) was 15 ± 0.5 µM (≈ 4.4 µg/mL) and the MIC (S. aureus ATCC 10390 [5]; [10]) was 12.5 to 25 µM (≈ 3.66 to 7.33 µg/mL). For the same molecule, the MIC (S. aureus ATCC 10390 [5]; [11]) was 12.5 to 25 µM (≈ 3.66 to 7.33 µg/mL), the “susceptibility in agar overlay TTC assay” value (K. pneumoniae) was “weakly susceptible” and the MIC [6] was 15 ± 0.5 µM (≈ 4.4 µg/mL). The Zones of inhibition (S. aureus ATCC 10390 [7]) was 19 mm.
`O=C(/C=C/c1c(Cl)ccc(Cl)c1Cl)c1cccc(O)c1` [Compound 4Bo, 3′-hydroxy-2,3,6-trichlorochalcone] showed an MIC [2] of 8.8 ± 1.2 µM (≈ 2.88 µg/mL), an MIC [3] of 12.5 ± 2.5 µM (≈ 4.09 µg/mL) and an MIC (K. pneumoniae ATCC 4352) greater than 250 µM. For the same molecule, the MIC (S. aureus ATCC 10390 [4]; [8]) was 6.5 ± 0.5 µM (≈ 2.13 µg/mL), the MIC (S. aureus ATCC 10390 [4]; [9]) was 10 ± 1 µM (≈ 3.28 µg/mL) and the “inhibition of S. aureus at the 12.5 μM level” value (S. aureus ATCC 10390 [5]; 12.5 μM, macroarray stock solutions diluted four fold) was “complete inhibition”. For the same molecule, the MIC (S. aureus ATCC 10390 [5]; [10]) was 6.25 to 12.5 µM (≈ 2.05 to 4.09 µg/mL), the MIC (S. aureus ATCC 10390 [5]; [11]) was less than 12.5 µM and the “susceptibility in agar overlay TTC assay” value (K. pneumoniae) was “weakly susceptible”. For the same molecule, the MIC [6] was 10 ± 1 µM (≈ 3.28 µg/mL).
